The numbers were not newly measured in patent publication US7713569B2, “Hydroxytyrosol-rich composition from olive vegetation water and method of use thereof” (Creagri, Inc., priority 2000, dated 2010), which cites them from elsewhere.

The test system of series [1] is low density lipoprotein (LDL) oxidation. The conditions noted are these: Visioli and Galli, 1998.
The test system of the next series is platelet aggregation. As to conditions: Petroni et al., 1995.
A further series concerns 5-lipoxygenase. The conditions noted are these: de la Puerta et al., 1999; Kohyama et al., 1997.
Another series deals with 12-lipoxygenase. The conditions noted are these: de la Puerta et al., 1999; Kohyama et al., 1997.
Series [2] concerns peroxynitrite dependent DNA base modification and tyrosine nitration. As to conditions: Deiana et al., 1999.
Series [3] concerns various human cellular systems. As to conditions: Manna et al., 2000.
For series [4] the following is noted: humans; Visioli et al., 2000.

Turning to `OCCc1ccc(O)c(O)c1` [hydroxytyrosol, 3,4-dihydroxyphenethyl alcohol], the LDL oxidation result in series [1] is “prevents”. The platelet aggregation entry with platelet aggregation is “prevents”. Moreover, the “inhibition of 5-lipoxygenase” value in the series on 5-lipoxygenase is recorded as “inhibits”. In the series with 12-lipoxygenase, the “inhibition of 12-lipoxygenase” value is “inhibits”. For the same compound, in series [2], the “effect on peroxynitrite dependent DNA base modification and tyrosine nitration” value was “inhibitory effect”. For the same compound, the “cytotoxicity induced by reactive oxygen species” value in series [3] is on record as “counteracts”. Also, the absorption following ingestion entry in series [4] is given as “dose-dependently absorbed”.
